# Test results taken from patent EP0246888A2, “Dopamine-beta-hydroxylase inhibitors” (SMITHKLINE BECKMAN CORPORATION, priority 1986, dated 1987).
# Key:
# [1] = test system: spontaneously hypertensive rats; assay: mean arterial blood pressure in spontaneously hypertensive rats; assay type: in vivo
# Experimental: Further, spontaneously hypertensive rats were treated with a suspension or solution of 1-benzyl-1,2,4-triazole-5-thiol at a dose of 100 mg/kg orally, and mean arterial blood pressure was monitored for 260 minutes using indwelling cannulae positioned in the tail arteries. When compared to vehicle-treated controls, the compound-treated animals' blood pressure was approximately 5% below that of controls 20 minutes following treatment. The compound-treated animals' blood pressure continued to fall until it reached its nadir of approximately 20% less than controls at 240 minutes after compound treatment. Similarly, 1-(3ʹ-fluorobenzyl)-1,2,4-triazole-5-thiol produced approximate 20% blood pressure reductions one hour after a 50 mg/kg intraperitoneal dose. The blood pressure of the treated animals remained approximately 20% less than controls when blood pressure monitoring was terminated.
# DBH = biological target: T1, DBH (Homo sapiens, UniProt P09172); conditions: reported by Runti et al., Il Farmaco Ed. Sci. 36, 260 (1980); cited from earlier work
# T1 sequence (P09172 1-617): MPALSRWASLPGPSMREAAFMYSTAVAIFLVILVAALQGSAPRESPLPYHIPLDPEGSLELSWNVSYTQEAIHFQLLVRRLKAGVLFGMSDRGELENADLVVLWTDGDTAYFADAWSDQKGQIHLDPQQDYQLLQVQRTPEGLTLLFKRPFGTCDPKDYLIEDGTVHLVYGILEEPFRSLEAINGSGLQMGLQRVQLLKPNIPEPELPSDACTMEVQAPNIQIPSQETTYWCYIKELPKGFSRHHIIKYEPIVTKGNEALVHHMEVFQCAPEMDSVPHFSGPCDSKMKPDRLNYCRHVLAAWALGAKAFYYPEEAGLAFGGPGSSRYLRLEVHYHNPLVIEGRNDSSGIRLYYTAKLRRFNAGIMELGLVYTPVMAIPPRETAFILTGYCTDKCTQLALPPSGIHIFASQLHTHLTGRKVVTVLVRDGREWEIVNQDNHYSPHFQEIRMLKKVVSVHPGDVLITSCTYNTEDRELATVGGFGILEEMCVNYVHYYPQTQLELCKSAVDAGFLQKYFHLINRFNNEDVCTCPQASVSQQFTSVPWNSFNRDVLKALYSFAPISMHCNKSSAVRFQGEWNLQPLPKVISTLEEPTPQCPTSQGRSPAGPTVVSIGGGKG
compound,measurement,setting,value
"Fc1cccc(Cn2ncnc2S)c1 [1-(3ʹ-Fluorobenzyl)-1,2,4-triazole-5-thiol]",blood pressure reductions,"[1]; 50 mg/kg intraperitoneal dose, one hour after dose",approximately 20%
same,blood pressure less than controls,"[1]; 50 mg/kg intraperitoneal dose, when blood pressure monitoring was terminated",approximately 20%
"Sc1ncnn1Cc1ccccc1 [1-benzyl-1,2,4-triazole-5-thiol, 1-Benzyl-1,2,4-triazole-5-thiol]",blood pressure below that of controls,"[1]; 100 mg/kg orally, 20 minutes following treatment, vs vehicle-treated controls",approximately 5%
same,"blood pressure nadir, less than controls","[1]; 100 mg/kg orally, 240 minutes after compound treatment, vs vehicle-treated controls",approximately 20%
phenylpicolinic acid,inhibitory activity relative to fusaric acid,DBH,twice the inhibitory activity of fusaric acid
